The values that follow come from ChEMBL document CHEMBL4184110 (Bioorg Med Chem Lett, 2018).

Format in all cases: cell-based
Assay [1] concerns the target T1, Thyroid hormone receptor beta (Homo sapiens, UniProt P10828).
T1 sequence (P10828 whole entry): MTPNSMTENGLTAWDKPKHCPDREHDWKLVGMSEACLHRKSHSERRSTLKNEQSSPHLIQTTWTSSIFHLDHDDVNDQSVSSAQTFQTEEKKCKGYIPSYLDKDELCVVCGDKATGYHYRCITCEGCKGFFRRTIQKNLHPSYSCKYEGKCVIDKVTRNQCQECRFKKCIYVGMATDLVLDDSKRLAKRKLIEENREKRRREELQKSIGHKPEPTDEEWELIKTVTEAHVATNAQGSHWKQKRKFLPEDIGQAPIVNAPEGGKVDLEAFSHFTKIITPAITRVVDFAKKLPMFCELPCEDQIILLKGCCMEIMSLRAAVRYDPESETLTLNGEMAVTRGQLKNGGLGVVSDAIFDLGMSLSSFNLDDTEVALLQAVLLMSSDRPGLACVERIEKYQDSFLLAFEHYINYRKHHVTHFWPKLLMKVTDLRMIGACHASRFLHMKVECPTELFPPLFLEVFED
The assay is described as follows: Antagonist activity at CMV-fused TRbeta-LBD-GAL4-DBD (unknown origin) expressed in HEK293T cells assessed as inhibition of T3-induced receptor transactivation after 16 hrs by bright-Glo luciferase reporter gene assay. (In a reporter assay the amount or activity of a reporter protein is the signal.)

For assay [2], the target named is Estrogen receptor beta (Homo sapiens, UniProt Q92731). Description: Antagonist activity at CMV-fused ERbeta-LBD-GAL4-DBD (unknown origin) expressed in HEK293T cells assessed as inhibition of estradiol-induced receptor transactivation after 16 hrs by bright-Glo luciferase reporter gene assay.
In assay [3] the target is T2, Peroxisome proliferator-activated receptor gamma (Homo sapiens, UniProt P37231).
T2 sequence (P37231 whole entry): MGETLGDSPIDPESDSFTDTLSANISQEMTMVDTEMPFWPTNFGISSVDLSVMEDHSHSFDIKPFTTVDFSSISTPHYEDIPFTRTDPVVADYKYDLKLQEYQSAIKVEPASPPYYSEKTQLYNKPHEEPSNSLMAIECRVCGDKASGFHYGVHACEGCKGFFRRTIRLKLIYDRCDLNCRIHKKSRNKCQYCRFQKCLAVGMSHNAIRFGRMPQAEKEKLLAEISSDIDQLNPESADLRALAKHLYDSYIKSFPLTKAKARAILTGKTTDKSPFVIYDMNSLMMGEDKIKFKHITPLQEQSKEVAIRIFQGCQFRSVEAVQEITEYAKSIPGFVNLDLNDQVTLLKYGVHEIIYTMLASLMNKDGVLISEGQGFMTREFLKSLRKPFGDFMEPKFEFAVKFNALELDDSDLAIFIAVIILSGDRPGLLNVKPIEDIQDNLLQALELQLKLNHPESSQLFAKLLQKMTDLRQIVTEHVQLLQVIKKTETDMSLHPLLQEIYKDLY
The assay is described as follows: Antagonist activity at CMV-fused PPARgamma-LBD-GAL4-DBD (unknown origin) expressed in HEK293T cells assessed as inhibition of rosiglitazone-induced receptor transactivation after 16 hrs by bright-Glo luciferase reporter gene assay.

For assay [4], the target named is T3, Vitamin D3 receptor (Homo sapiens, UniProt P11473).
T3 sequence (P11473 whole entry): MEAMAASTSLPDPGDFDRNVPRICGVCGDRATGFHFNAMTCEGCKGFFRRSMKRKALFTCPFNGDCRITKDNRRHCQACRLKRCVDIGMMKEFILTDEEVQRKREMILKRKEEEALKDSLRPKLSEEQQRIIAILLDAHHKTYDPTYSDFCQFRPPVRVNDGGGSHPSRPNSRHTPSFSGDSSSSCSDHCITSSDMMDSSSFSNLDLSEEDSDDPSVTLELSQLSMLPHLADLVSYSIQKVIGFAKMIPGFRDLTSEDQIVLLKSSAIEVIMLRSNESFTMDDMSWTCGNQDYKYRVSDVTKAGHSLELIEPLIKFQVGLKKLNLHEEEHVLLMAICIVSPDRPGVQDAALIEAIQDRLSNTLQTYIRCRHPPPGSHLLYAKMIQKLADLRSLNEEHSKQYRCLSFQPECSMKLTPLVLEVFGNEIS
Description: Antagonist activity at VP16-fused VDR-LBD (unknown origin) expressed in HEK293T cells assessed as inhibition of ligand-induced GAL4-fused SRC1 coactivator recruitment by two-hybrid luciferase reporter gene assay.

The target of assay [5] is T4, Retinoic acid receptor RXR-alpha (Homo sapiens, UniProt P19793).
T4 sequence (P19793 whole entry): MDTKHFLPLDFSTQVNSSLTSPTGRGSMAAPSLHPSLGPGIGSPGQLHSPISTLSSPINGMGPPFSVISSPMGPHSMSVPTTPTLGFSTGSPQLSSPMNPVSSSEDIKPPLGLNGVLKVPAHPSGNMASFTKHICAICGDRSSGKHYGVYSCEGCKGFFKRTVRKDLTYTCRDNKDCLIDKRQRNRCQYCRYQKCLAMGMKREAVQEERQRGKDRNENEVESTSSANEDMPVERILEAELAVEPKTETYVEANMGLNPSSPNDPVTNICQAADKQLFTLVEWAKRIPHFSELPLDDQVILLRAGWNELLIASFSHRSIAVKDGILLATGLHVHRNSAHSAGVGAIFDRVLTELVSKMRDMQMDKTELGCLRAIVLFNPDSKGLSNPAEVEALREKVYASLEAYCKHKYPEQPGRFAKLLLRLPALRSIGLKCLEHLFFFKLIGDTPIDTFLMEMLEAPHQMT
The assay is described as follows: Antagonist activity at CMV-fused RXRalpha-LBD-GAL4-DBD (unknown origin) expressed in HEK293T cells assessed as inhibition of bexarotene-induced receptor transactivation after 16 hrs by bright-Glo luciferase reporter gene assay.

Assay [6] addresses T3, Vitamin D3 receptor. The assay is described as follows: Antagonist activity at CMV-fused VDR (unknown origin) expressed in HEK293T cells assessed as reduction in 24-hydroxylase promoter mediated transcriptional activity by luciferase reporter gene assay. To be noted: read-out: IC50.
Assay [7] has as its target T5, Thyroid hormone receptor alpha (Homo sapiens, UniProt P10827).
T5 sequence (P10827 whole entry): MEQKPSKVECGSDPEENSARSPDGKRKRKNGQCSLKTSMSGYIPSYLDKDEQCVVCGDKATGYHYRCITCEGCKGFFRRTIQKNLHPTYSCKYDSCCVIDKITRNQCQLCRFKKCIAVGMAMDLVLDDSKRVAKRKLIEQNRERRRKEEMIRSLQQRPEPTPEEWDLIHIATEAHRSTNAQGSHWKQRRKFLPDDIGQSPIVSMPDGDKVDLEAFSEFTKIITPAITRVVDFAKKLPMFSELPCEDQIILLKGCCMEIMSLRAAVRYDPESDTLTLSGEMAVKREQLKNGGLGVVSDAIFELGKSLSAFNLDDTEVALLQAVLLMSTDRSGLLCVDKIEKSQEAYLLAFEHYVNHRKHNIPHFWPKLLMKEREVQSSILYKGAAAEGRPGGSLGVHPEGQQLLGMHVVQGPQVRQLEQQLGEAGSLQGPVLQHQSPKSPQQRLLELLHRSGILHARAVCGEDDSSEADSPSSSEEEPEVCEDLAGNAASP
Description: Antagonist activity at CMV-fused TRalpha-LBD-GAL4-DBD (unknown origin) expressed in HEK293T cells assessed as inhibition of T3-induced receptor transactivation after 16 hrs by bright-Glo luciferase reporter gene assay.

Sequence of Estrogen receptor beta (Q92731 whole entry, the tested form may be a part): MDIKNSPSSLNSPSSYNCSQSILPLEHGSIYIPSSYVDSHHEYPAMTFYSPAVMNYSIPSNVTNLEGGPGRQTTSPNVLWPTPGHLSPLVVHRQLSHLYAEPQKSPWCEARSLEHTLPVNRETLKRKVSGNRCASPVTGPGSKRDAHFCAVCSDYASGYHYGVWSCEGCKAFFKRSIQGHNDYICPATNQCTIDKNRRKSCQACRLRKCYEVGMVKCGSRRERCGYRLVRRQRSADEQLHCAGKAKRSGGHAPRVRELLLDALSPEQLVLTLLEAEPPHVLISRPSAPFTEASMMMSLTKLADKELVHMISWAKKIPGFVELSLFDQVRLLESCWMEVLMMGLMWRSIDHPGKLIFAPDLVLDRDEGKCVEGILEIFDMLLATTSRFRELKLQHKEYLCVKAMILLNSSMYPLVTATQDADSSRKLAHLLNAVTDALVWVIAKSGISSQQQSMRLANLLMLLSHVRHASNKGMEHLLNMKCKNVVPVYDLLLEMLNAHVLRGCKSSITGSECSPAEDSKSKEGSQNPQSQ

In general, IC50 refers to the concentration that gives 50% inhibition. Consider `COC(=O)c1cccc(OCc2oc(-c3ccccc3OC)nc2C)c1`, for which the IC50 in assay [1] turned out to be 9.8 µM; in assay [2] it was 23.6 µM; in assay [3] it was 7.6 µM; in assay [4], 7.33 µM; in assay [5], 11.1 µM; in assay [6] it was 2.5 µM. In addition, the half-maximal inhibitory concentration (IC50) in assay [7] came to 10.1 µM.
As to `COC(=O)Cc1ccc(OCc2oc(-c3ccccc3OC)nc2C)cc1`, the IC50 in assay [1] stood at 7.6 µM; in assay [2], 10 µM; in assay [3], 6.3 µM; in assay [4], 11.1 µM; in assay [5], 4.4 µM; in assay [6], 3.82 µM. Further, the IC50 in assay [7] is 8.4 µM.
On to `COC(=O)Cc1ccc(OCc2oc(-c3cccc(OC)c3)nc2C)cc1`, for which the IC50 in assay [1] was found to be 0.97 µM; in assay [2], 7.4 µM; in assay [3] it was 6.7 µM; in assay [4], 13.9 µM; in assay [5], 2 µM; in assay [6], 0.66 µM. The IC50 in assay [7] turned out to be 4.2 µM.
As for `COC(=O)c1ccc(OCc2oc(-c3cccc(OC)c3)nc2C)cc1`, the IC50 is 8.8 µM in assay [1]; 5.9 µM in assay [2]; 7.6 µM in assay [3]; 8.89 µM in assay [4]; 4.6 µM in assay [5]; 5.67 µM in assay [6]. Moreover, the IC50 in assay [7] stood at 5.4 µM.
